Test results from ChEMBL document CHEMBL5728348, “1 H-pyrazol-1-yl-thiazoles as inhibitors of lactate dehydrogenase and methods of use thereof” (2021).

Experiment: Biochemical Assay: Test compounds were placed in a Greiner Bio-One (Monroe, N.C.) 1536-well black solid bottom assay plate. 200 millimolar (mM) Tris HCl, pH 7.4, 100 micromolar (μM) EDTA and 0.01% TWEEN-20, final concentration, was used as the assay buffer. The LDHA reagent was 2 nanomolar (nM) Human LDHA (Meridian Life Science, Inc., Memphis, Tenn.), final concentration, in assay buffer. The substrate reagent was 0.06 mM NADH and 0.2 mM sodium pyruvate, final concentration, in assay buffer. The resazurin/diaphorase coupling reagent was 0.037 mM resazurin and 0.133 milligrams per milliliter (mg/mL) diaphorase, final concentration, in assay buffer. The inhibition of LDHA activity was measured by fluorescence emission.
In the case of `CC1CC=C(c2cc(-c3nn(-c4nc(C(=O)O)cs4)c(CC4CC4)c3Cc3ccc([SH+](N)[O-])c(F)c3)ccc2F)CC1` (configuration not stated), the IC50 is reported as under 0.1 µM.
In the case of `COC1CC=C(c2cc(-c3nn(-c4nc(C(=O)O)cs4)c(CC4CC4)c3Cc3ccc([SH+](N)[O-])c(F)c3)ccc2F)CC1` (configuration not stated), the IC50 is reported as under 0.1 µM.
`COc1ccc(-c2cc(-c3nn(-c4nc(C(=O)O)cs4)c(CC4CC4)c3Cc3ccc([SH+](N)[O-])c(F)c3)ccc2F)cc1C` (configuration not stated) showed an IC50 of under 0.1 µM.
Work on `Cc1ccc(C#Cc2cccc(-c3nn(-c4nc(C(=O)O)cs4)c(CCC4CC4)c3Cc3ccc([SH+](N)[O-])c(F)c3)c2)s1` (configuration not stated) yielded an IC50 of under 0.1 µM.
With `CC(C)(C)c1ccc(C#Cc2cc(-c3nn(-c4nc(C(=O)O)cs4)c(CC4CC4)c3Cc3ccc([SH+](N)[O-])c(F)c3)ccc2F)s1` (configuration not stated) the IC50 was “in the range around 0.55 µM”.
Compound `Cc1ccc(C2CC2c2cccc(-c3nn(-c4nc(C(=O)O)cs4)c(CC4CC4)c3Cc3ccc([SH+](N)[O-])c(F)c3)c2)s1` (configuration not stated) has an IC50 of under 0.1 µM.
Work on `CC1CCCC=C1c1cc(-c2nn(-c3nc(C(=O)O)cs3)c(CC3CC3)c2Cc2ccc([SH+](N)[O-])c(F)c2)ccc1F` (configuration not stated) yielded an IC50 of under 0.1 µM.
For `N[SH+]([O-])c1ccc(Cc2c(-c3cccc(C#Cc4ccc(C5CC5)s4)c3)nn(-c3nc(C(=O)O)cs3)c2CC2CC2)cc1F` (configuration not stated), the IC50 was “in the range around 0.55 µM”.
For `N[S+](=O)([O-])c1ccc(Cc2c(-c3ccc(F)c(C4=CCCCC4)c3)nn(-c3nc(C(=O)O)cs3)c2CC2CC2)cc1F`, the IC50 was under 0.1 µM.
For `N[S+](=O)([O-])c1ccc(Cc2c(-c3ccc(F)c(C4=CCC5(CC4)CC5)c3)nn(-c3nc(C(=O)O)cs3)c2CC2CC2)cc1F`, the IC50 was under 0.1 µM.
`Cc1ccc(C#Cc2cccc(-c3nn(-c4nc(C(=O)O)cs4)c(CC4(C)CC4)c3Cc3ccc([SH+](N)[O-])c(F)c3)c2)s1` (configuration not stated) gave an IC50 of under 0.1 µM.
With `N[S+](=O)([O-])c1ccc(Cc2c(-c3ccc(F)c(-c4cccc(Cl)c4)c3)nn(-c3nc(C(=O)O)cs3)c2CC2CC2)cc1F` the IC50 was under 0.1 µM.
With `CC(C)N1CC2(CN(c3cc(-c4nn(-c5nc(C(=O)O)cs5)c(CC5CC5)c4Cc4ccc([SH+](N)[O-])c(F)c4)ccc3F)C2)C1` (configuration not stated) the IC50 was under 0.1 µM.
Work on `CC(=O)c1cc(-c2nn(-c3nc(C(=O)O)cs3)c(CC3CC3)c2Cc2ccc([SH+](N)[O-])c(F)c2)ccc1F` (configuration not stated) yielded an IC50 of under 0.1 µM.
`N[S+](=O)([O-])c1ccc(Cc2c(-c3ccc(F)c(-c4ccc5c(c4)CCCC5)c3)nn(-c3nc(C(=O)O)cs3)c2CC2CC2)cc1F` gave an IC50 of under 0.1 µM.
For `N[S+](=O)([O-])c1ccc(Cc2c(-c3ccc(F)c(-c4cc(F)cc(F)c4)c3)nn(-c3nc(C(=O)O)cs3)c2CC2CC2)cc1F`, the IC50 was under 0.1 µM.
With `Cc1ccsc1C#Cc1cccc(-c2nn(-c3nc(C(=O)O)cs3)c(CC3CC3)c2Cc2ccc([SH+](N)[O-])c(F)c2)c1` (configuration not stated) the IC50 was under 0.1 µM.
Work on `N[SH+]([O-])c1ccc(Cc2c(-c3cccc(C#Cc4ccc(C(F)F)s4)c3)nn(-c3nc(C(=O)O)cs3)c2CC2CC2)cc1F` (configuration not stated) yielded an IC50 of under 0.1 µM.
`Cc1ccc(-c2cc(-c3nn(-c4nc(C(=O)O)cs4)c(CC4CC4)c3Cc3ccc([SH+](N)[O-])c(F)c3)ccc2F)cc1F` (configuration not stated) gave an IC50 of under 0.1 µM.
With `N[S+](=O)([O-])c1ccc(Cc2c(-c3ccc(F)c(-c4ccc(Cl)c(F)c4)c3)nn(-c3nc(C(=O)O)cs3)c2CC2CC2)cc1F` the IC50 was under 0.1 µM.
`N[SH+]([O-])c1ccc(Cc2c(-c3ccc(F)c(NC(=O)c4ccccc4)c3)nn(-c3nc(C(=O)O)cs3)c2CC2CC2)cc1F` (configuration not stated) showed an IC50 of under 0.1 µM.
With `N[S+](=O)([O-])c1ccc(Cc2c(-c3ccc(F)c(-c4ccc(C(F)(F)F)cc4)c3)nn(-c3nc(C(=O)O)cs3)c2CC2CC2)cc1F` the IC50 was under 0.1 µM.
Work on `Cc1ccc(C#Cc2cccc(-c3nn(-c4nc(C(=O)O)cs4)c(C4CC45CC5)c3Cc3ccc([SH+](N)[O-])c(F)c3)c2)s1` (configuration not stated) yielded an IC50 of under 0.1 µM.
`Cc1cc(C)c(C#Cc2cccc(-c3nn(-c4nc(C(=O)O)cs4)c(CC4CC4)c3Cc3ccc([SH+](N)[O-])c(F)c3)c2)s1` (configuration not stated) showed an IC50 of under 0.1 µM.
Work on `Cc1ccc(C#Cc2cccc(-c3nn(-c4nc(C(=O)O)cs4)c(CC4CC4)c3Cc3ccc([SH+](N)[O-])c(F)c3)c2)o1` (configuration not stated) yielded an IC50 of under 0.1 µM.
With `N[S+](=O)([O-])c1ccc(Cc2c(-c3ccc(F)c(-c4ccc5c(c4)CCC5)c3)nn(-c3nc(C(=O)O)cs3)c2CC2CC2)cc1F` the IC50 was under 0.1 µM.
For `Cc1ncc(C#Cc2cc(-c3nn(-c4nc(C(=O)O)cs4)c(CC4CC4)c3Cc3ccc([SH+](N)[O-])c(F)c3)ccc2F)s1` (configuration not stated), the IC50 was under 0.1 µM.
With `CC1(C)CC=C(c2cc(-c3nn(-c4nc(C(=O)O)cs4)c(CC4CC4)c3Cc3ccc([SH+](N)[O-])c(F)c3)ccc2F)CC1` (configuration not stated) the IC50 was under 0.1 µM.
`N[SH+]([O-])c1ccc(Cc2c(-c3ccc(F)c(C4=CCCO4)c3)nn(-c3nc(C(=O)O)cs3)c2CC2CC2)cc1F` (configuration not stated) gave an IC50 of under 0.1 µM.
Work on `Cc1cnc(C#Cc2cc(-c3nn(-c4nc(C(=O)O)cs4)c(CC4CC4)c3Cc3ccc([SH+](N)[O-])c(F)c3)ccc2F)s1` (configuration not stated) yielded an IC50 of under 0.1 µM.
In the case of `COc1cc(OC)cc(-c2cc(-c3nn(-c4nc(C(=O)O)cs4)c(CC4CC4)c3Cc3ccc([SH+](N)[O-])c(F)c3)ccc2F)c1` (configuration not stated), the IC50 is reported as under 0.1 µM.
With `N[S+](=O)([O-])c1ccc(Cc2c(-c3ccc(F)c(-c4ccc(F)c(F)c4)c3)nn(-c3nc(C(=O)O)cs3)c2CC2CC2)cc1F` the IC50 was under 0.1 µM.
Work on `N[S+](=O)([O-])c1ccc(Cc2c(-c3ccc(F)c(C4=Cc5ccccc5C4)c3)nn(-c3nc(C(=O)O)cs3)c2CC2CC2)cc1F` yielded an IC50 of under 0.1 µM.
For `N[S+](=O)([O-])c1ccc(Cc2c(-c3ccc(F)c(C4=CCC(F)(F)CC4)c3)nn(-c3nc(C(=O)O)cs3)c2CC2CC2)cc1F`, the IC50 was under 0.1 µM.
For `CC(C)c1ccc(C#Cc2cccc(-c3nn(-c4nc(C(=O)O)cs4)c(CC4CC4)c3Cc3ccc([SH+](N)[O-])c(F)c3)c2)s1` (configuration not stated), the IC50 was “in the range around 0.55 µM”.
For `N[S+](=O)([O-])c1ccc(Cc2c(-c3ccc(F)c(-c4ccc(Cl)cc4)c3)nn(-c3nc(C(=O)O)cs3)c2CC2CC2)cc1F`, the IC50 was under 0.1 µM.
`Cc1ccc(/C=C/c2cccc(-c3nn(-c4nc(C(=O)O)cs4)c(CC4CC4)c3Cc3ccc([SH+](N)[O-])c(F)c3)c2)s1` (configuration not stated) showed an IC50 of under 0.1 µM.
Compound `N[S+](=O)([O-])c1ccc(Cc2c(-c3ccc(F)c(C4=CCC(C(F)(F)F)CC4)c3)nn(-c3nc(C(=O)O)cs3)c2CC2CC2)cc1F` (configuration not stated) has an IC50 of under 0.1 µM.
With `N[SH+]([O-])c1ccc(Cc2c(-c3cccc(C#Cc4ccc(C(F)(F)F)s4)c3)nn(-c3nc(C(=O)O)cs3)c2CC2CC2)cc1F` (configuration not stated) the IC50 was “in the range around 0.55 µM”.
For `Cc1ccc(C#Cc2cccc(-c3nn(-c4nc(B(O)O)cs4)c(CC4CC4)c3Cc3ccc([SH+](N)[O-])c(F)c3)c2)s1` (configuration not stated), the IC50 was “in the range around 29 µM”.
`Cc1ccc([C@H]2C[C@@H](c3cccc(-c4nn(-c5nc(C(=O)O)cs5)c(CC5CC5)c4Cc4ccc([SH+](N)[O-])c(F)c4)c3)C2)s1` (some centres not stated) gave an IC50 of under 0.1 µM.
Work on `N[SH+]([O-])c1ccc(Cc2c(-c3cccc(C#Cc4ccc(Cl)s4)c3)nn(-c3nc(C(=O)O)cs3)c2CC2CC2)cc1F` (configuration not stated) yielded an IC50 of under 0.1 µM.
In the case of `Cc1cnc(C#Cc2cccc(-c3nn(-c4nc(C(=O)O)cs4)c(CC4CC4)c3Cc3ccc([SH+](N)[O-])c(F)c3)c2)o1` (configuration not stated), the IC50 is reported as under 0.1 µM.
With `Cc1cc(C)cc(-c2cc(-c3nn(-c4nc(C(=O)O)cs4)c(CC4CC4)c3Cc3ccc([SH+](N)[O-])c(F)c3)ccc2F)c1` (configuration not stated) the IC50 was “in the range around 0.55 µM”.
For `Cc1ccc(C#Cc2cc(-c3nn(-c4nc(C(=O)O)cs4)c(CCC4CC4)c3Cc3ccc([SH+](N)[O-])c(F)c3)ccc2F)s1` (configuration not stated), the IC50 was under 0.1 µM.
With `Cc1ccc(C#Cc2cccc(-c3nn(-c4nc(C(=O)O)cs4)c(CC4CC4)c3Cc3ccc([SH+](N)[O-])c(F)c3)c2)s1` (configuration not stated) the IC50 was under 0.1 µM.
With `N[S+](=O)([O-])c1ccc(Cc2c(-c3ccc(F)c(-c4cc(Cl)cc(Cl)c4)c3)nn(-c3nc(C(=O)O)cs3)c2CC2CC2)cc1F` the IC50 was “in the range around 0.55 µM”.
